The test system of experiment [1] is S. Typhimurium ATCC 14028. The conditions noted are these: cited from earlier work.
Experiment [2] deals with S. Typhimurium ATCC 14028 (JSG210) biofilms. Description: Biofilm inhibition assay (crystal violet staining). The conditions noted are these: for IC50: inhibition of S. Typhimurium biofilm formation, compound present 24 h, crystal violet OD570, mean ± standard deviation. The experiment is classed as cell-based, Salmonella enterica serovar Typhimurium. As to the method:
Inhibition of biofilm formation is assessed by growing bacteria in a 96-well plate in the absence (control) or presence of test compounds. After 24 hours, the wells are washed to remove planktonic bacteria, and the remaining surface attached bacteria (biofilm) are stained with crystal violet (CV). The wells are then washed again to remove excess CV, and the remaining CV is solubilized with a solution of acetic acid and then quantified by spectrophotometry at 570 nm. A dose response curve is then constructed from which an IC50 value is determined.
(§1) Salmonella biofilm growth and crystal violet staining. […] For biofilm assays, individual bacterial colonies were picked and used to inoculate LB broth for overnight liquid cultures, which were grown at 37° C. with aeration using a rotating drum. […] Biofilm plates were then submerged in dH2O to wash away any remaining non-adherent bacteria and heat fixed (1h, 60° C.). Biofilms were then stained with a 33% crystal violet solution (6 mL PBS, 3.3 mL crystal violet, 333 μL methanol, 333 μL isopropanol) for 5 min. and washed twice by submerging in dH2O before releasing the bound dye with 33% glacial acetic acid. Biofilm growth was then quantified by measuring the optical density of the solubilized dye at 570 nm using a spectrophotometer (Molecular Devices, SpectraMax M5).
(§2) Biofilm Inhibition and Dispersion Assays and IC50/EC50 Determination. […] Biofilms were then grown as described above for a total of 24 h prior to CV staining. […] Biofilms were then incubated for an additional 24 h in the presence of compounds prior to CV staining. IC50/EC50 values were calculated by plotting normalized compound activity (percent biofilm formed and percent remaining, respectively) as a function of log10 compound concentration and fitting a dose response curve (log[inhibitor] vs. normalized response, variable slope).

For experiment [3] the test system is unchanged. Kind of experiment: Biofilm dispersion assay on pre-formed biofilms (crystal violet staining). It is filed as cell-based, Salmonella enterica serovar Typhimurium. The settings on record: 50% dispersion of biofilms established 24 h, then 24 h with compound, crystal violet OD570; mean ± standard deviation. As to the method: as §1, §2
For experiment [4], the system named is S. Typhimurium ATCC 14028. Description: Murine model of chronic Salmonella gallbladder carriage, combination with ciprofloxacin. It is filed as in vivo, 129X1/SvJ NRAMP+/+ mice. The settings on record: for reduction in bacterial burden in the gallbladder: 5 mg/kg/day compound + 1 mg/kg/day cipro I.P., 15 dpi. As to the method: FIGS. 5A-5F provide graphs showing Enumeration of Salmonella in the gallbladder, liver, and spleen of infected mice at 15 dpi. […] Dotted lines represent the limit of detection where applicable; significant differences among the bacterial burden of treatment groups were determined via one-way ANOVA with the Tukey correction for multiple comparisons; ns non-significant, * p<0.05, ** p<0.01, *** p<0.001, **** p<0.0001.
Murine model of chronic Salmonella gallbladder carriage and evaluation of compound therapeutic efficacy in combination with ciprofloxacin. A total of 46 adult 129X1/SvJ NRAMP^+/+ mice (The Jackson Laboratory, Bar Harbour, ME) were used in this study. […] Mice were randomly assigned to treatment groups in two separate experiments. […] Treatments were administered daily via I.P. injection from days 5-15 post-infection. On day 15 post-infection, mice were euthanized and gallbladders, livers, and spleens were removed and homogenized in a volume of 1 mL sterile PBS using a TissueLyser LT bead mill (Qiagen, Valencia, CA). Tissue homogenates were serially diluted in PBS, plated onto LB agar, and incubated at 37° C. for 16h in order to quantify bacterial burden via CFU enumeration.

The mark [5] stands for this setting: 5 mg/kg/day 7d + 4 mg/kg/day cipro, I.P., days 5-15.
Where [6] appears, read: 2 mg/kg/day cipro alone, I.P., days 5-15 post-infection.

These results are taken from patent publication US20250161285A1, “BACTERIAL BIOFILM INHIBITORS” (THE RESEARCH INSTITUTE AT NATIONWIDE CHILDREN'S HOSPITAL, priority 2022, published 2025).

Read-outs that look alike come from different tables or passages of the source.

As for `CN(Cc1ccsc1)CC1CCN(CCc2ccccc2F)CC1` [Compound 1], the “reduction in the bacterial burden in the gallbladder” value in experiment [1] (compound 1 10 mg/kg/day + ciprofloxacin 1.0 mg/kg/day (Sandala et al., 2020)) is listed as 3-4.5 log. In addition, the “reduction of bacterial burden in the gallbladder” value in experiment [1] (compound 1 at 10 mg/kg/day, previous experiments (Sandala et al., 2020)) was “several logs”. The half-inhibitory concentration (IC50) (as a rule, the concentration needed to halve the response being measured) in experiment [2] came to 5.7 µM. In addition, the concentration for a half-maximal effect (EC50) (as a rule, the concentration that produces a half-maximal response) in experiment [3] stood at 829 µM. Also, in experiment [4] (days 5-15 post-infection), the “reduction in bacterial burden in the gallbladder” value (from here on “reduction in bacterial burden”) is recorded as ~2 log-fold.

Turning to `CN(Cc1ccsc1)CC1CCN(CCc2cccc(Cl)c2Cl)CC1` [Compound 7b], in experiment [4] (days 5-15 post-infection), the “reduction in bacterial burden” value was ~1.5 log-fold.

For the molecule `CN(Cc1ccsc1)CC1CCN(CCc2ccc(Br)c(Br)c2)CC1` [Compound 7d], in experiment [4] (setting [5]), the “CFUs recovered in all organs (gallbladder, liver, spleen)” value was “neared the limit of detection” and the “gallbladder bacteria versus 4 mg/kg/day cipro alone” value is “additional significant reduction”. For the same molecule, the “reduction in bacterial burden” value in experiment [4] (days 5-15 post-infection) is recorded as 4.5-5 log-fold. The “reduction of bacterial burden in the gallbladder” value in experiment [4] (compound with ciprofloxacin) is 4.5-5 logs.

`CN(Cc1ccsc1)CC1CCN(Cc2c(F)cccc2F)CC1` [Compound 7n]: in experiment [2], the half-maximal inhibitory concentration (IC50) was > 200 µM. In addition, the EC50 in experiment [3] is > 12000 µM.

`CN(Cc1ccsc1)CC1CCN(Cc2ccc(F)c(F)c2)CC1` [Compound 7o] came in with an IC50 in experiment [2] of 7.2 ± 1.8 µM. Besides, the concentration giving a half-maximal response (EC50) in experiment [3] was found to be 3800 ± 204 µM.

As for `CN(Cc1ccsc1)CC1CCN(Cc2cc(Cl)ccc2Cl)CC1` [Compound 7p], the IC50 in experiment [2] came to 15.8 ± 1.4 µM. The EC50 in experiment [3] is 196 ± 27 µM.

In experiment [2], `CN(Cc1ccsc1)CC1CCN(Cc2cccc(Cl)c2Cl)CC1` [Compound 7r] showed a 50% inhibitory concentration (IC50) of 2.7 ± 1.4 µM. In experiment [3], the EC50 came to 70 ± 8 µM.

In experiment [2], `CN(Cc1ccsc1)CC1CCN(Cc2ccc(Br)c(Br)c2)CC1` [Compound 7s] returned an IC50 of 11.9 ± 1.7 µM. Further, in experiment [3], the concentration for a half-maximal effect (EC50) was 32 ± 1 µM.

In experiment [2], `CN(Cc1ccsc1)CC1CCN(Cc2cccc(F)c2F)CC1` [Compound 7t] came in with an IC50 of 146 µM. In addition, the 50% effective concentration (EC50) in experiment [3] turned out to be 870 ± 79 µM.

The molecule `CN(Cc1ccsc1)CC1CCN(Cc2ccccc2C(F)(F)F)CC1` [Compound 7u] returned a half-maximal inhibitory concentration (IC50) in experiment [2] of 20.9 µM. Besides, the EC50 in experiment [3] was 140 ± 39 µM.

In turn, `CN(Cc1ccsc1)CC1CCN(CCc2ccccc2I)CC1` [Compound 8a] gave an IC50 in experiment [2] of 4.3 µM. For the same molecule, the EC50 in experiment [3] was 60 ± 2 µM.

For the molecule `CN(Cc1ccsc1)CC1CCN(CCc2cccc(I)c2)CC1` [Compound 8b], in experiment [2], the 50% inhibitory concentration (IC50) was determined as 4 ± 0.7 µM. In experiment [3], the EC50 was found to be 44 ± 2 µM.

As for `CN(Cc1ccsc1)CC1CCN(CCc2ccc(I)cc2)CC1` [Compound 8c], in experiment [2], the IC50 worked out at 2.6 µM. Besides, the EC50 in experiment [3] came to 89 ± 10 µM.

In experiment [2], `CN(Cc1ccsc1)CC1CCN(Cc2ccccc2I)CC1` [Compound 8d] gave a half-inhibitory concentration (IC50) of 5.4 ± 0.5 µM. In addition, in experiment [3], the EC50 was 79 ± 5 µM.

Consider `CN(Cc1ccsc1)CC1CCN(Cc2cccc(I)c2)CC1` [Compound 8e], for which the half-maximal inhibitory concentration (IC50) in experiment [2] came to 10 ± 4.5 µM. In addition, the EC50 in experiment [3] was 92 ± 3 µM.

In experiment [2], `CN(Cc1ccsc1)CC1CCN(Cc2ccc(I)cc2)CC1` [Compound 8f] came in with an IC50 of 5.7 ± 2.9 µM. The EC50 in experiment [3] was 77 ± 3 µM.

In experiment [2], `Cc1ccccc1CCN1CCC(CN(C)Cc2ccsc2)CC1` [Compound 8g] came in with a concentration for half-maximal inhibition (IC50) of 6.3 ± 2.3 µM. Besides, the EC50 in experiment [3] was determined as 247 ± 11 µM.

`CC(C)c1ccc(CCN2CCC(CN(C)Cc3ccsc3)CC2)cc1` [Compound 8h] came in with an IC50 in experiment [2] of 2.3 µM. Besides, the concentration for a half-maximal effect (EC50) in experiment [3] is 123 ± 7 µM.

As to `CN(Cc1ccsc1)CC1CCN(CCc2cccc(-c3ccccc3)c2)CC1` [Compound 8i], the “fold improvement of IC50 versus comparator” value in experiment [2] (6a vs 4c, 6b vs 4d, 6g vs 4c and 4d, 8i vs 8b) is listed as “two-fold”. This molecule registered a half-inhibitory concentration (IC50) in experiment [2] of 1.8 µM. Besides, in experiment [3], the EC50 stood at 31 ± 4 µM.

With `CN(Cc1ccsc1)CC1CCN(CCc2ccc(-c3ccccc3)cc2)CC1` [Compound 8j], the “reduction in bacterial burden” value in experiment [4] (days 5-15 post-infection) is reported as 3.5-4 log-fold.

As to `CN(Cc1ccsc1)CC1CCN(CCc2cccc3ccccc23)CC1` [Compound 8k], the concentration for half-maximal inhibition (IC50) in experiment [2] was determined as 2.5 µM. Further, the concentration for a half-maximal effect (EC50) in experiment [3] was 28 ± 5 µM.

As for `O=C(O)c1cn(C2CC2)c2cc(N3CCNCC3)c(F)cc2c1=O` [cipro, ciprofloxacin, reference compound], in experiment [4] (setting [6]), the “bacteria recovered from the liver and spleen” value is recorded as “reduce the number of bacteria recovered”; the “effect on bacterial burden within the gallbladder” value is listed as “no statistically significant effect”. In addition, in experiment [4] (4 mg/kg/day cipro alone, I.P., days 5-15 post-infection), the “reduction of bacterial gallbladder burden” value is 3-4 logs.
